Measurements published in article PMC11418212, “Characterization of four structurally diverse inhibitors of SUR2-containing KATP channels” (Channels, 2024).

Columns and labels:
Test in all cases: Kir family selectivity thallium flux assay
Type in all cases: cell-based
Kir3.1/3.2 = molecular target: T1, Kir3.1/3.2 (Homo sapiens, UniProt P48051+P48549)
T1 construct: expressed in transfected cells
T1 sequence (P48549 1-501): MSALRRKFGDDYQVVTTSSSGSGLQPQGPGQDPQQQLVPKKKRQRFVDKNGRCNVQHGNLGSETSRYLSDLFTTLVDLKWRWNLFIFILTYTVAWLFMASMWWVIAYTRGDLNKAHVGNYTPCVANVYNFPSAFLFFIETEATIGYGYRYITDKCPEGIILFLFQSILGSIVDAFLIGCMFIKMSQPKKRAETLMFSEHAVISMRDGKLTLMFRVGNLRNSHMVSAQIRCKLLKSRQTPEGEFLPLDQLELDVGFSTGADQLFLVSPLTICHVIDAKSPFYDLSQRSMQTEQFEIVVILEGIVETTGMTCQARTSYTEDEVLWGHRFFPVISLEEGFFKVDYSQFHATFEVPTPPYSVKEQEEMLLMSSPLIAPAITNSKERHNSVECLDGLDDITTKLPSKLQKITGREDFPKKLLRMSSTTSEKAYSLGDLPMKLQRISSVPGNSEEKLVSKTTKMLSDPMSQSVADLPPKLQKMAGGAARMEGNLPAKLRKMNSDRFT
T1 sequence (P48051 1-423): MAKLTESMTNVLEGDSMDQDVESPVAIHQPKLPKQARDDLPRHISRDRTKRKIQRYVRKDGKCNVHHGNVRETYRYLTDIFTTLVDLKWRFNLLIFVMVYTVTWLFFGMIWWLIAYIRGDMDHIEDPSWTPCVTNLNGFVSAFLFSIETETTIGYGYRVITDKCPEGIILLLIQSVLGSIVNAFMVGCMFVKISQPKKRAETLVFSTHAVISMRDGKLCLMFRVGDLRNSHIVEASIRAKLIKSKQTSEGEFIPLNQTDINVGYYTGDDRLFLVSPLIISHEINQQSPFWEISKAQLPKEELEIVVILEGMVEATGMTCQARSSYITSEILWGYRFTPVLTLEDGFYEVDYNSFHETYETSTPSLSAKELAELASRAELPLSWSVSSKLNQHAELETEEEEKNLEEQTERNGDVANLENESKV
Method: (§1) Thallium flux assays were conducted using the established methods. Stably transfected T-REx-HEK-293 cells expressing Kir6.2/SUR1 or Kir6.1/SUR2B were cultured overnight in polyamine-coated plates (black-walled, clear-bottomed; BD, Bedford, MA) at a density of 20,000 cells in 20 µl per well of cell culture media. The expression of Kir6.2/SUR1 or Kir6.1/SUR2B channels was induced by treating cells with 1 µg/ml tetracycline overnight. The following day, cells were rinsed with an assay buffer (Hanks’ Balanced Salt Solution supplied with 20 mM HEPES), loaded with the thallium-sensor dye Brilliant Thallos-AM AM (Ion Bioscience, San Marcos, TX) for 1 h, and then washed again with assay buffer to remove unincorporated dye. The cell plate was subsequently placed in a Panoptic Kinetic Imaging Plate Reader (Wavefront Bioscience, Franklin, TN) and imaged at a frequency of 1 Hz using 482/35 nm (excitation) and 536/40 nm (emission) filter sets. Kir6.1/SUR2B channels were activated with 10 µM pinacidil, whereas Kir6.1/SUR1 was activated with 30 µM VU0071063 [34]. To activate KATP channels independent of activators with ATP-depletion method, cells were treated with a cocktail of metabolic inhibitors (2.5 mM sodium cyanide and 20 mM 2-deoxy glucose) for 25 min before imagine. Control and test compounds diluted freshly from DMSO stocks into assay buffer were added to wells for four minutes before adding 0.5 mM chloride-free thallium stimulus buffer (Ion Bioscience) to initiate thallium flux through the expressed KATP channels. Thallium flux was recorded from all 384-wells for 2 min before terminating the experiment. […] Selectivity assays against other Kir channels were performed as described previously.
(§2) To begin elucidating the binding site location of VU0212387, VU0543336, VU0605768, and VU0544086, we evaluated the activity of the inhibitors against KATP channels composed of different Kir and SUR subunit combinations expressed in HEK293 cells. Specifically, the compounds were tested against Kir6.1/SUR1, Kir6.2/SUR1, Kir6.1/SUR2A, Kir6.2/SUR2A, Kir6.1/SUR2B, and Kir6.2/SUR2B at a dose of 3 µM. […] We expanded the selectivity analysis to include 10 other members of the Kir channel family.

Kir2.3 = molecular target: T2, Kir2.3 (Homo sapiens, UniProt P48050)
T2 construct: expressed in transfected cells
T2 sequence (P48050 1-445): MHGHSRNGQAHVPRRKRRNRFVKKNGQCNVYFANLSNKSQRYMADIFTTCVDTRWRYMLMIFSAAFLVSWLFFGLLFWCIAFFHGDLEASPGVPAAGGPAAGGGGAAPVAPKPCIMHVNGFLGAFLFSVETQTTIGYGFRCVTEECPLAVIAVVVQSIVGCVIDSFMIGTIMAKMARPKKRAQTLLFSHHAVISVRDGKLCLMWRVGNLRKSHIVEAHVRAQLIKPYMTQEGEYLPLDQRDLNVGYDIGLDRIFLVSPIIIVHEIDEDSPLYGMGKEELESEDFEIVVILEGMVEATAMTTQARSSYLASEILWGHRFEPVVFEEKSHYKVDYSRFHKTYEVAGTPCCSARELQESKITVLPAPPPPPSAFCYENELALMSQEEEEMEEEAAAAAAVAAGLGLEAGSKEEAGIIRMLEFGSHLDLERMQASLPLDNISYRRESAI
Method: as §1, §2

Kir4.1 = molecular target: T3, Kir4.1 (Homo sapiens, UniProt P78508)
T3 construct: expressed in transfected cells
T3 sequence (P78508 1-379): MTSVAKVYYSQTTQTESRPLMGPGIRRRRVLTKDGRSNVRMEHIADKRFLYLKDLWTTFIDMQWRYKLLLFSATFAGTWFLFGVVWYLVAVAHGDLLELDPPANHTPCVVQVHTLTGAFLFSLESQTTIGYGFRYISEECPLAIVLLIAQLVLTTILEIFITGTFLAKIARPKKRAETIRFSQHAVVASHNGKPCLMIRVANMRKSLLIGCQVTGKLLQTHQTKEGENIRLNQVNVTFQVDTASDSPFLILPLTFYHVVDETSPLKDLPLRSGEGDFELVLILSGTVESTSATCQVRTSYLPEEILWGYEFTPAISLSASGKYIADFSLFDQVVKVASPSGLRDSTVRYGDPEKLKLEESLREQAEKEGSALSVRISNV
Method: as §1, §2

Measured: IC50

c1ccc2[nH]c(CSc3ncnc4c3oc3ccccc34)nc2c1 [VU0212387, 4-(((1 H-benzo[d]imidazol-2-yl)methyl)thio)benzofuro[3,2-d]pyrimidine]
> 30 µM: all assays above

O=C(NCC(O)(c1ccccc1)C(F)(F)F)c1ccc(OC(F)(F)F)cc1 (stereo not drawn) [VU0543336, N-(3,3,3-trifluoro-2-hydroxy-2-phenylpropyl)-4-(trifluoromethoxy)benzamide]
> 30 µM: all assays above

O=C(NCc1cc(-c2ccncc2)n(C2CCCC2)n1)Nc1cccs1 [VU0544086, 1-((1-cyclopentyl-5-(pyridin-4-yl)-1 H-pyrazol-3-yl)methyl)-3-(thiophen-2-yl)urea]
> 30 µM: all assays above

O=C1c2oc3ccccc3c(=O)c2C(c2cccc(Br)c2)N1CCO (stereo not drawn) [VU0605768, 1-(3-bromophenyl)-2-(2-hydroxyethyl)-1,2-dihydrochromeno[2,3-c]pyrrole-3,9-dione]
> 30 µM: all assays above
